Data on 1 compound can be found in patent publication US20220202964A1, “HEPARANASE COMPOUNDS AND METHODS OF USE” (University of Florida Research Foundation, Incorporated, priority 2019, published 2022).

The nature of series [1]: Fluorescence response to biological oxidizing and reducing species. The settings on record: 5 μM; 100 μM H2O2, 5 mM GSH and Cys; 4 h, 37° C. On the procedure:
(§1) 5 μM compound 1 (HADP) was incubated with various biological species at the indicated amount/concentration in 96-well microplate. Cysteine (5 mM), Glutathione (5 mM), H2O2 (100 μM), Esterase, Chondroitinase ABC, Hyaluronidase, Lysozyme, β-Glucuronidase, β-Glucosidase (5 μg each) and heparanase (2 μg). For Chondroitinase ABC and Hyaluronidase, 50 μg was also tested. Each sample was performed in triplicates. Then the microplate was sealed with sealing film and incubated at 37° C. for 4 hours. Fluorescence intensity was recorded on Spectramax M5 Multimode plate reader (Molecular Devices, USA). λex/em=365 nm/455 nm.

In another series the target is T1, β-Glucuronidase (Homo sapiens, UniProt P08236).
T1 sequence (P08236 23-651): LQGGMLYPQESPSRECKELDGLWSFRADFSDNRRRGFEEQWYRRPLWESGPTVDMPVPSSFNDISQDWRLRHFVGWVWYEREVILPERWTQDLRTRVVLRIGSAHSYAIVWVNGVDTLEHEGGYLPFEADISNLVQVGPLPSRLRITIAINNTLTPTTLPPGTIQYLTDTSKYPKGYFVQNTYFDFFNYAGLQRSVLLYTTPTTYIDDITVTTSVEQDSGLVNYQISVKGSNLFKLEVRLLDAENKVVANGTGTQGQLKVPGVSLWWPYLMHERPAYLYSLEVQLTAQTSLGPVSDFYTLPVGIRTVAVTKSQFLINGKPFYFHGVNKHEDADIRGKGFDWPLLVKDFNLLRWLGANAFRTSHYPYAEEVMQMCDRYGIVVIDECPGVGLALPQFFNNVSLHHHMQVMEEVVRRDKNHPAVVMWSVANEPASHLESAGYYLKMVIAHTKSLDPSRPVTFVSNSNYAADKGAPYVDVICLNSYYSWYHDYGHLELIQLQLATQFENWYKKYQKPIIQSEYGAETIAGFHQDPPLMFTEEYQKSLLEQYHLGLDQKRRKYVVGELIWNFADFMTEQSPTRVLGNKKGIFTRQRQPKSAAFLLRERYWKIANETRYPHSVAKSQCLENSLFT
The experiment in a line: Fluorescence response to biological species: β-glucuronidase. Format: biochemical. The settings on record: 5 μM; β-glucuronidase 5 μg; 4 h, 37° C. On the procedure: as §1

Series [2] deals with T2, heparanase (Homo sapiens, UniProt Q9Y251).
T2 sequence (Q9Y251 36-543): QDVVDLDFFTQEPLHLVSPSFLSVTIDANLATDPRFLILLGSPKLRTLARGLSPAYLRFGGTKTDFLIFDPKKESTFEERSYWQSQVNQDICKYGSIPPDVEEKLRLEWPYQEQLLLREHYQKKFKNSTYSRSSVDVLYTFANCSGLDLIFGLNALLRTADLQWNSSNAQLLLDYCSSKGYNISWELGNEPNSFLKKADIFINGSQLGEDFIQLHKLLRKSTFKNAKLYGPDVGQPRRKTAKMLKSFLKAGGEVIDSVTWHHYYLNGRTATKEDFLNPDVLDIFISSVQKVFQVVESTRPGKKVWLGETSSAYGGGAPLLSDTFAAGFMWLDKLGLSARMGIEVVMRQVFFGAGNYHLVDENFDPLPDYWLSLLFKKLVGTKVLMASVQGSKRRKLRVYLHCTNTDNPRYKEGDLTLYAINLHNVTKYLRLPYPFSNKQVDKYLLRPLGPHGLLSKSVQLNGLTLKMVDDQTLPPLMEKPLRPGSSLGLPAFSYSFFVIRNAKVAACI
Kind of series: HPLC analysis of compounds 1-4 with heparanase. Format: biochemical. To be noted: 5 μM, heparanase 1 μg, 4 hours, 37° C., NaOAc pH 5.0. The procedure:
Heparanase (1 μg, 20 μL) was added to the compounds 1-4 solution (180 μL, 5 μM) in 40 mM NaOAc buffer (pH 5.0) and the mixture was incubated for 4 hours at 37° C. The resulting mixtures were injected into HPLC for analysis. HPLC analysis was performed under the following conditions—mobile phase A: water with 0.1% TFA; B: acetonitrile with 0.1% TFA; 0-20 min: gradient elution, 25-95% B. The trace was monitored by DAD detector at 315 nm.

Series [3] in a line: pH profile of fluorescence / pKa. The settings on record: pH range from 1 to 13. Format: physicochemical. On the procedure:
So, pH profiles of the fluorophore DiFMU and Compound 1 (HADP) were evaluated. […] In contrast, the pKa of 4-methylumbelliferone is ca. 7.8. […] Moreover, the introduction of the fluorine substituents increased the quantum yield and improved the photostability, enabling highly sensitive detection for heparanase.

A short description of series [4]: Selectivity toward heparanase against interfering biological molecules and enzymes. Format: biochemical. The procedure:
as §1

Series [5] has as its target T2, heparanase. The experiment in a line: Activation of compounds by recombinant heparanase (fluorescence response). Format: biochemical. On the procedure: To a solution of 20 μL, of 50 μM compound 1 (HADP) and 160 μL 40 mM NaOAc (pH=5.0) was added 20 μL, 0.1 μg/μL heparanase to obtain 5 μM 1 (HADP) with 2 μg heparanase solution. After incubation at 37° C. for 2 h, the reaction solution was transferred to quartz cuvettes to measure absorbance or fluorescence. Absorbance spectrum scan range from 250 nm to 500 nm (1 nm increment). fluorescence spectrum setting: λex=365 nm, Slit Width 2.5 nm. Emission was record from 400 nm to 600 nm, Slit Width 5 nm. Absorption spectra were recorded on Shimadzu UV-2700 UV-VIS Spectrophotometer. Fluorescence spectra were recorded on Fluorolog TAU-3 Spectrofluorometer with a xenon lamp (Jobin Yvon-Spex, Instruments S. A., Inc.)
Fluorescence micro cells was charged with 20 μL, of 50 μM compound 1 (HADP) and 160 μL 40 mM NaOAc (pH=5.0). Then 20 μL, 0.05 μg/μL heparanase was added to the above solution. Fluorescence spectra were recorded from 0 min to 3 h. fluorescence spectrum setting: λex=365 nm, Slit Width 2.5 nm. Emission was record from 400 nm to 600 nm, Slit Width 5 nm.
To a solution of 20 μL, of 50 μM each compound and 160 μL, 40 mM NaOAc (pH=5.0) was added 20 μL, 0.05 μg/μL heparanase to obtain 5 μM each compound with 1 μg heparanase solution in 96-well microplate. Each compound was performed in triplicate. Then the microplate was sealed with sealing film and incubated at 37° C. Fluorescence intensity was recorded on Spectramax M5 Multimode plate reader (Molecular Devices, USA) at each timepoint. λex/em=365 nm/455 nm.
as §1

For the compound `Cc1cc(=O)oc2c(F)c(O[C@@H]3O[C@H](C(=O)O)[C@@H](O[C@H]4O[C@H](CO)[C@@H](O)[C@H](O)[C@H]4NS(=O)(=O)O)[C@H](O)[C@H]3O)c(F)cc12` [Compound 1], the fluorescence change result in series [1] is reported as “No fluorescence change”. Besides, at β-Glucuronidase, the fluorescence response entry is “did not trigger fluorescence response”. Further, the “cleavage by heparanase (HPLC trace)” value on heparanase [2] is recorded as “clean conversion”. Besides, the “fluorescence change at 455 nm over pH” value in series [3] is recorded as “no remarkable fluorescence change”. In addition, the “selectivity for heparanase over other competitive analytes” value in series [4] was “excellent selectivity”. For the same compound, in series [4] (5 μM, superphysiological levels, 4 h, 37° C.), the “fluorescence increase upon addition of other molecules and enzymes” value is “no fluorescence increase”. In addition, at heparanase [5] (5 μM compound, 1 μg heparanase, 40 mM NaOAc buffer (pH 5.0), 37° C., λex/em=365 nm/455 nm), the “fluorescence response towards heparanase” value was “significant fluorescence enhancement”. The “fluorescence enhancement turn-on ratio at 450 nm” value at heparanase [5] (5 μM, heparanase 2 μg (0.01 μgμl-1), after 2 hours, NaOAc pH 5.0) is listed as “up to 756 fold”. On heparanase [5] (5 μM, heparanase 2 μg, 4 h, 37° C.), the “fluorescence off-on response to heparanase in selectivity panel” value is “largest “off-on” response”. For the same compound, the “time at which fluorescence reached a plateau” value on heparanase [5] (HADP 5 μM, heparanase 1 μg) is reported as 2.5 h. For the same compound, the “time at which the enzymatic reaction was completed after addition of heparanase” value on heparanase [5] (heparanase 2 μg, 5 μM probe) was found to be 40 min.
